# From a melting point compilation (Tetko et al.; mined from patent text by program, amines drawn as free bases though some values may be those of a salt)
row,Structure (SMILES),melting point [°C]
1,COc1ccc(CCNc2ncnc3occc23)cc1,135 to 136
2,CC(=O)CC1=C(O)CCCC1=O,80 to 81
3,O=C(Nc1ccc(F)cc1)NC1CCN(C(=O)c2ccc(C(=O)O)cc2)CC1,195 to 198
4,O=C(Nc1ccccc1F)C1C(=O)Sc2ccccc21 (configuration not stated),155 to 156
5,CN1CCN(c2nc3c(c(NCCO)n2)SCCC3)CC1,162 to 164
6,CNc1c(F)cc2c(=O)c(C(=O)O)cn(-c3ccc(F)c(N)n3)c2c1Cl,233 to 238
7,O=C(Nc1ccc(Sc2c(O)c3c(Cl)cc(Cl)cc3[nH]c2=O)cc1)c1cccnc1,> 300
8,COC(=O)c1nc(-c2ccc(Cl)c(OC)c2F)nc(O)c1OC,177 to 179
9,Nc1nc(NCCN2CCOCC2)nc(-c2cc(Cl)ccc2Cl)n1,159 to 161
10,O=C(Nc1ccc2cc(CN3CCCC3)ccc2c1)c1ccc(-c2ccc(F)cc2)nc1,238 to 240
11,CCOC(=O)C(NC(=O)OC(C)(C)C)c1csc(NC(=O)OCC(Cl)(Cl)Cl)n1 (configuration not stated),94 to 95
12,Cc1ccc(C(=O)Nc2ccc(CN3CCOCC3)c(C(F)(F)F)c2)cc1Br,147 to 151
13,COc1cc(Nc2c(C#N)cnc3cc(C#CCCO)c(OC)cc23)c(Cl)cc1Cl,230 to 232
14,CN(Cc1ccccc1)c1nc(N)nc(-c2cc(Cl)ccc2Cl)n1,163 to 164
15,COc1ccc(O)c(CNc2ccc(NC(=O)CC(C)(C)C)cc2)c1,126 to 129
16,CCCCNc1ncc2ccc(=O)n(C)c2n1,146 to 147
17,COc1cccc(-c2ccc(C(=O)N(Cc3cccc(O)c3)C3CC3)s2)c1F,150
18,C#CCON=C(C(C)=NOCc1ccccc1C(=COC)C(=O)OC)c1ccccc1,163 to 165
19,CCCOc1ccc(F)c2c(=O)c(-c3ccc(OC)cc3)c(CN3CCN(c4ccccn4)CC3)[nH]c12,211 to 212
20,COc1ccc2c(c1OC)CCN(Cc1ccc(-c3ccc(-c4cccc(N)n4)cc3)cc1)C2,205 to 209
21,CCOC(=O)c1c(Nc2ccccc2[N+](=O)[O-])c(C)cn1C,114
22,CC(C)(C)c1cccc(C[C@@H]2N[C@@H](c3ccccc3)[C@@H](c3ccccc3)OC2=O)c1,136 to 137
23,CN1C(=O)[C@]2(C)CC[C@](NCC(=O)N3CCC[C@H]3C#N)(C1=O)C2(C)C,141 to 144
24,NS(=O)(=O)c1ccc(-n2nc(C(F)F)cc2-c2nc3cccc(F)c3s2)cc1,246 to 248

row,Structure (SMILES),melting point [°C]
1,O=c1c(-c2ccccc2)cc([N+](=O)[O-])c2n1CCc1ccsc1-2,180 to 182
2,CC1(OCc2ccccc2F)COC(c2ccco2)OC1 (configuration not stated),67.5 to 69
3,COc1ccc(-c2nc(OCC#N)c3cc(OC)ccc3c2[N+](=O)[O-])cc1,192 to 194
4,CC1(C)CCC(C)(C)c2nc3c(ccc4c(-c5ccc(C(=O)O)cc5)cn(Cc5cccnc5)c43)nc21,286 to 288
5,CCCCCCC[C@H](CC(=O)OC(C)(C)C)C(=O)N1C(=O)OC[C@@H]1C(C)C,49 to 51
6,COC(=O)C1Oc2ccc3c(-c4ccccc4)noc3c2O1 (configuration not stated),78 to 80
7,O=C(c1cccs1)N1CCCC1,66 to 68
8,COC(=O)Cc1ccc(C(=O)c2ccc(C)cc2)n1C,117 to 118
9,COC(=O)c1ccc(OCC2CCCCC2)cc1,62 to 63
10,CCOC(=O)c1ccc(NCC(C)Oc2ccc(Cl)c3ccccc23)cc1 (configuration not stated),122
11,CCOC(=O)C1=C(N)NC2=C(C(=O)CCC2)C1C (configuration not stated),236
12,CCNC(=O)c1c(Cl)cccc1[Si](C)(C)C1CCCCC1,111 to 113
13,N#CC(C(=O)Nc1ccccc1)C(=O)c1nn(-c2ccccc2)c2c1CSc1ccccc1-2 (configuration not stated),228 to 230
14,COc1ccc(C(=O)c2ccc(OCc3nc(-c4ccccc4)oc3C)cc2)c(OC(C(=O)O)C(C)C)c1 (configuration not stated),87 to 88
15,CCCNC(=O)NCC1CCCCC1,60 to 61
16,O=[N+]([O-])c1c(Br)nn(Cc2ccccc2)c1Br,128
17,CCOC(=O)c1ncn2c1C(C)(C)Nc1ccccc1-2,145 to 149
18,Cc1c(C)c2c(c(C)c1OCc1ccccc1)CCC(C)(CC(=O)O)O2 (configuration not stated),91 to 96
19,COCn1nc(-c2cc(C(C)(C)C)c(O)c(C(C)(C)C)c2)c2cccnc21,113 to 115
20,CC(C)(C)c1cc(CCc2ccccc2NC(=O)NCCc2ccc(F)cc2)cc(C(C)(C)C)c1O,177 to 179
21,COc1ccc(C2CNCCc3c2cc(OC)c(OC)c3C)cc1 (configuration not stated),100 to 111
22,CNS(=O)(=O)c1cscc1CO,118 to 119
23,COc1ccc(S(=O)(=O)N2C(=O)C(c3ccccc3OC)(N3Cc4ccccc4C[C@H]3C(=O)N(C)C)c3cc(Cl)c(C)cc32)c(OC)c1 (some centres not stated),160
24,COc1ccc(C(=O)Nc2ccccc2)cc1NCc1cccc([N+](=O)[O-])c1,172 to 175

row,Structure (SMILES),melting point [°C]
1,COc1ccc(CNc2cc(-c3cc4cc(F)c(F)cc4[nH]3)ccc2OC)cc1,173 to 175
2,Cc1cc(S)n2nc(C(=O)O)nc2n1,215 to 217
3,O=C1c2ccccc2C(=O)c2oc(-c3cccc(F)c3)nc21,230
4,CC1=C(C#N)C(c2cccc3nc(-c4ccccc4)sc23)C(C(=O)OC(C)C)=C(C)N1 (configuration not stated),218
5,O=C(N=c1ccn(-c2ccccc2)nc1)c1ccccc1,175 to 176
6,CNC(=S)N1CC(Oc2cccc(C(F)(F)F)c2)C1,79 to 86
7,COc1ccc(Nc2cccc(Cl)n2)cc1,74 to 76
8,c1ccc2c(c1)cc(Cn1ccnc1)c1ccsc12,109 to 111
9,CCOC(=O)c1ccc(NC(=O)c2ccc3c(c2)OCCO3)cc1,134 to 136
10,N#Cc1c(N2CCc3ccccc3CC2)nc2n(c1=O)CCC2,184 to 190
11,COc1ccc(-c2cnc(S)nc2-c2ccc(OC)cc2)cc1,188 to 191
12,CCOC(=O)c1cc(-c2ccc(C)cc2)n(-c2ccc(S(N)(=O)=O)cc2)n1,220 to 222
13,NC(=O)c1c(Cl)cc(Cl)c(OCC(=O)O)c1Cl,261 to 262
14,O=C(N[C@@H](Cc1ccccc1)C(=O)N1CCS(=O)CC1)c1cc2cc(Cl)ccc2[nH]1,230 to 234
15,CCCc1nc2c(N)nc3ccccc3c2n1CCCCNS(C)(=O)=O,186 to 188
16,CCOC(=O)c1cc(C#N)c(C=O)nc1NC,137 to 139
17,Cn1c(=O)c2[nH]cnc2n(CCCC(=O)O)c1=O,220 to 221
18,ON=c1cc(-c2cc3cccn3cn2)oc2cccc(C(F)(F)F)c12,255 to 257
19,BrC(Br)=Cc1ccc(OCc2ccccc2)cc1,97 to 98
20,O=C(Nc1ccc(-n2nc(C(F)(F)F)cc2C(F)(F)F)cc1)C1CCCCCC1,174 to 175
21,CN(O)C(=O)c1ccc(CCCCc2ccc(C(=O)N(C)O)cc2)cc1,157 to 159
22,Cc1c(Cl)ccc(N(C)C(=O)CN2C(=O)c3ccccc3C2=O)c1Cl,193 to 194
23,NC(=S)c1ccc2c(c1)Nc1ccccc1S2,208 to 209
24,CN1CCN(CCCCC(=O)N2c3ccccc3C(=O)Nc3cccnc32)CC1,151 to 153
